biological target: GLP1R (Homo sapiens, UniProt P43220); experiment: GLP1R cAMP HTRF assay, HEK293/GLP-1R/CRE/Luc (HEK293T cells); type: cell-based; conditions: read-out: EC50
Procedure: GLP-1R-mediated agonist activity was determined with a cell-based functional assay utilizing an HTRF (Homogeneous Time-Resolved Fluorescence) cAMP detection kit (cAMP Dynamic 2 Assay Kit; CisBio cat #62AM4PEC) that measures cAMP levels in the cell. The method is a competitive immunoassay between native cAMP produced by the cells and exogenous cAMP labeled with the dye d2. The tracer binding is visualized by a mAb anti-cAMP labeled with Cryptate. The specific signal (i.e., energy transfer) is inversely proportional to the concentration of cAMP in either standard or experimental sample.
A cell line stably expressing the receptor was isolated.
Varying concentrations of each compound to be tested (in DMSO) were diluted in DMSO to obtain 200× compound working solution first and then 50 nl compounds were added to a white 384-well assay plate (Greiner 784075) with ECHO. The final DMSO concentration was 0.5%. The compound concentration range may be adjusted at any time.
Cells were removed from cryopreservation, re-suspended in 5 mL of Dulbecco's Phosphate Buffered Saline (DPBS-Sigma Cat # D8537) and centrifuged at 900 g for 5 min at 22° C. The cell pellet was then re-suspended in 1 mL of assay buffer [DPBS with 500 μM IBMX (Sigma #15879) and 0.1% BSA (Sigma # A1933). IBMX and BSA were freshly added on the day of assay]. A 10 μL sample of the cell suspension was counted on an Invitrogen Countess II to determine cell viability and cell count per mL. The remaining cell suspension was then adjusted with assay buffer to deliver 1000 viable cells per well using a Matrix Combi Multidrop reagent dispenser. 10 μL cell suspensions were added to each well of the assay plate which already contains compound. The plate was sealed and incubated at 37° C. with 5% CO2 for 30 minutes.
Following the 30 minute incubation, 5 μL of labeled d2 cAMP and 5 μL of anti-cAMP antibody (both diluted 1:20 in cell lysis buffer; as described in the manufacturer's assay protocol) were added to each well of the assay plate. The plates w ere then incubated at room temperature and after 60 minutes, changes in the HTRF signal were read with an Envision multi-label plate reader using excitation of 330 nm and emissions of 615 and 665 nm. Raw data were converted to nM cAMP by interpolation from a cAMP standard curve (as described in the manufacturer's assay protocol) and the percent effect was determined relative to a saturating concentration of the full agonist GLP-17-37 (10 nM) included on each plate. EC50 determinations were made from agonist dose-response curves analyzed with a curve fitting program using a 4-parameter logistic dose response equation.
3) Anti-cAMP antibody-cryptate working solution preparation • c) The lyophilisate was reconstituted with appropriate amount of distilled water according to manufacturer's instruction to make working stock which can be aliquoted and frozen (−20° C.). • d) The working stock solution was diluted 1:20 in the conjugate and lysis buffer before use. Procedures Procedures for Cell Suspension Preparation • 1. Frozen cells were thawed very briefly in a 37° C. water bath under sterile conditions until just before ice completely melt (for about 1 minute) with a continuous agitation. Caution was taken because a longer incubation could result in cell death. • 2. DMSO was removed from the media by carefully transferring thawed cells to a sterile 15/50 mL tube, filling a tube with 10-50 mL of complete media pre-warmed to 37° C., and allowing the cells to sit 5 min before centrifuging at 900 rpm for 5 minutes for cell collection. • 3. The cells were resuspended with assay buffer. • 4. For stable GLP1-R assay, the optimized cell density is 1000 cells/well. Caution was taken because cell density optimization was crucial and needed to be optimized in different laboratories. The level of cAMP produced by the cells must fall within the linear range of the standard curve.

Sequence of GLP1R (P43220 24-463): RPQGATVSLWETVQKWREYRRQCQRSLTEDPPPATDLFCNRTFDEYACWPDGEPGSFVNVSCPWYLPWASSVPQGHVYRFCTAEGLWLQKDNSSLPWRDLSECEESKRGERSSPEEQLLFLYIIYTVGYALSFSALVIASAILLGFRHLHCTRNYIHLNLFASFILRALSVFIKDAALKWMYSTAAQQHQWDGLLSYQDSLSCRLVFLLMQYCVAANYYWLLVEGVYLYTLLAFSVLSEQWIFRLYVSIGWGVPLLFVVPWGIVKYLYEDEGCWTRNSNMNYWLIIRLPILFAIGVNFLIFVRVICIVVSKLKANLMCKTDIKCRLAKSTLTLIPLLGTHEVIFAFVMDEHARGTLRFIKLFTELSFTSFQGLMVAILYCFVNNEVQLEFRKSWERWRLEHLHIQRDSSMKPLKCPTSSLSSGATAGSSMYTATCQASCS

SMILES | EC50 [µM]
O=C(O)c1ccc2nc(CN3CC=C(c4cncc(OCc5ccc(Cl)cc5F)c4)CC3)n(C[C@@H]3CCO3)c2c1 [Compound 32, (S)-2-((5-((4-chloro-2-fluorobenzyl)oxy)-3′,6′-dihydro-[3H′-bipyridin]-1′(2′H)-yl)methyl)-1-(oxetan-2-ylmethyl)-1 h-benzo[d]imidazole-6-carboxylic acid] | ≤ 1
O=C(O)c1ccc2nc(CN3CC=C(c4ccc5c(n4)N(CCc4cccc(Cl)c4)CCO5)CC3)n(C[C@@H]3CCO3)c2c1 [Compound 37, (S)-2-((4-(4-(3-chlorophenethyl)-3,4-dihydro-2 h-pyrido[3,2-b][1,4]oxazin-6-yl)-5,6-dihydropyridin-1(2H)-yl)methyl)-1-(oxetan-2-ylmethyl)-1 h-benzo[d]imidazole-6-carboxylic acid] | > 1
O=C(O)c1ccc2nc(CN3CC=C(c4ccc5c(n4)N(Cc4ccc(Cl)cc4F)C(=O)CO5)CC3)n(C[C@@H]3CCO3)c2c1 [Compound 38, (S)-2-((4-(4-(4-chloro-2-fluorobenzyl)-3-oxo-3,4-dihydro-2 h-pyrido[3,2-b][1,4]oxazin-6-yl)-5,6-dihydropyridin-1(2H)-yl)methyl)-1-(oxetan-2-ylmethyl)-1 h-benzo[d]imidazole-6-carboxylic add] | ≤ 1
O=C(O)c1ccc2nc(CN3CC=C(c4cccc(N5CCc6cc(Cl)ccc6C5)n4)CC3)n(C[C@@H]3CCO3)c2c1 [Compound 39, (S)-2-((6-(6-chloro-3,4-dihydroisoquinolin-2(1H)-yl)-3′,6′-dihydro-[2,4′-bipyridin]-1′(2′H)-yl)methyl)-1-(oxetan-2-ylmethyl)-1 h-benzo[d]imidazole-6-carboxylic add] | ≤ 0.15
O=C(O)c1ccc2nc(CN3CC=C(c4cc(F)c(F)c(OCc5ccc(Cl)cc5F)c4)CC3)n(C[C@@H]3CCO3)c2c1 [Compound 41, (S)-2-((4-(3-(4-chloro-2-fluorobenzyloxy)-4,5-difluorophenyl)-5,6-dihydropyridin-1(2H)-yl)methyl)-1-(oxetan-2-ylmethyl)-1 h-benzo[d]imidazole-6-carboxylic acid] | ≤ 0.015
O=C(O)c1ccc2nc(CN3CC=C(c4cc(F)cc(OCc5ccc(Cl)cc5F)c4)CC3)n(C[C@@H]3CCO3)c2c1 [Compound 42, (S)-2-((4-(3-((4-chloro-2-fluorobenzyl)oxy)-5-fluorophenyl)-3,6-dihydropyridin-1(2H)-yl)methyl)-1-(oxetan-2-ylmethyl)-1 h-benzo[d]imidazole-6-carboxylic acid] | ≤ 0.015

Further lines, results first:

EC50 [µM] | SMILES
≤ 0.015 | O=C(O)c1ccc2nc(CN3CC=C(c4nccc(OCc5ccc(Cl)cc5F)n4)CC3)n(C[C@@H]3CCO3)c2c1 [Compound 33, (S)-2-((4-(4-(4-chloro-2-fluorobenzyloxy)pyrimidin-2-yl)-5,6-dihydropyridin-1(2H)-yl)methyl)-1-(oxetan-2-ylmethyl)-1 h-benzo[d]imidazole-6-carboxylic acid]
≤ 1 | O=C(O)c1ccc2nc(CN3CCN(c4cc5ccccc5c(OCc5ccc(Cl)cc5F)n4)CC3)n(C[C@@H]3CCO3)c2c1 [Compound 36, (S)-2-((4-(1-((4-chloro-2-fluorobenzyl)oxy)isoquinolin-3-yl)piperazin-1-yl)methyl)-1-(oxetan-2-ylmethyl)-1 h-benzo[d]imidazole-6-carboxylic acid]
≤ 1 | O=C(O)c1ccc2nc(CN3CC=C(c4cccc(OCc5ccc(Cl)cc5F)c4F)CC3)n(C[C@@H]3CCO3)c2c1 [Compound 40, (S)-2-((4-(3-(4-chloro-2-fluorobenzyloxy)-2-fluorophenyl)-5,6-dihydropyridin-1(2H)-yl)methyl)-1-(oxetan-2-ylmethyl)-1 h-benzo[d]imidazole-6-carboxylic add]
≤ 0.015 | O=C(O)c1ccc2nc(CN3CC=C(c4cc(OCc5ccc(Cl)cc5F)ccc4F)CC3)n(C[C@@H]3CCO3)c2c1 [Compound 43, (S)-2-((4-(5-((4-chloro-2-fluorobenzyl)oxy)-2-fluorophenyl)-3,6-dihydropyridin-1(2H)-yl)methyl)-1-(oxetan-2-ylmethyl)-1H-benzo[d]imidazole-6-carboxylic add]

Reference: patent publication US10844049B2, “GLP-1R agonists and uses thereof” (QILU REGOR THERAPEUTICS INC., priority 2018, dated 2020)
